Laboratory results: patent US12577248B2, “Substituted [1,2,4]triazolo[1,5-a]pyrazines as spleen tyrosine kinase inhibitors” (NANJING RUIJIE PHARMA CO., LTD., priority 2020, dated 2026)

Each molecule was assayed against SYK kinase (Homo sapiens, UniProt P43405) (assay: SYK kinase assay (HTRF KinEASE-TK)). Conditions: class symbols, read-out: Syk inhibition IC50.
Format: biochemical
Method: A homogeneous time-resolved fluorescence (HTRF) assay was performed to assess the potential inhibitory effect of compounds on SYK kinase. The HTRF KinEASE-TK kit (Cisbio) was used. During the step, kinase will phosphorylate the substrate, and the resulting fluorescence signal is proportional to the phosphorylation level. The assay was performed in the following steps: First, the testing compounds were diluted 1:3 in succession in DMSO. The 1× kinase buffer contained 1 volume of 5× enzymatic buffer with 4 volumes of distilled water, 5 mM MgCl2, 1 mM MnCl2, and 1 mM DTT. The assays were assembled in 384 well plates (784075, Greiner) where 10 nl of compound solutions were added into each well, and the plates were centrifuged at 1000 g for 1 min. Then, 5 μl of 2×SYK in 1× kinase buffer were added to each well. The plates were centrifuged at 1000 g for 30 s and then incubated at room temperature for 10 min. The reaction was initiated by adding […] of premixed 2×TK-substrate-biotin and ATP mixture in 1× kinase buffer to the assay plates. The plates were centrifuged at 1000 g for 30 s and incubated at room temperature for 30 min. Phosphorylation was detected by adding 5 μl of 4×Sa-XL 665 in HTRF detection buffer into each well of the assay plates. The plates were centrifuged plates at 1000 g for 30 sec, and then incubated at room temperature for 1 h. Finally, the plates were read on an Envision 2104 plate reader (PerkinElmer) and the fluorescence signal was measured at 615 nm (Cryptate) and 665 nm (XL665).
A ratio (665/615 nm) was calculated for each well. The inhibition ratio was calculated as follow: […]
IC50 was calculated by fitting % Inhibition values and log of compound concentrations to nonlinear regression (dose response−variable slope) with GraphPad 6.0.
COc1cc(Nc2nc(-c3ccc4[nH]ncc4c3)cn3cnnc23)ccc1N1CCOCC1 [I67, 6-(1H-indazol-5-yl)-N-(3-methoxy-4-morpholinophenyl)-[1,2,4]triazolo[4,3-a]pyrazin-8-amine] gave an IC50 of 0.5 to 5 µM. COc1cc(Nc2nc(-c3ccc4c(C)n[nH]c4c3)cn3cnnc23)ccc1N1CCOCC1 [I46, N-(3-methoxy-4-morpholinophenyl)-6-(3-methyl-1H-indazol-6-yl)-[1,2,4]triazolo[4,3-a]pyrazin-8-amine] gave an IC50 of 0.5 to 5 µM. NC(=O)c1ccc(-c2cn3ncnc3c(Nc3ccc(N4CCOCC4)cc3)n2)cc1 [I5, 4-(8-((4-morpholinophenyl)amino)-[1,2,4]triazolo[1,5-a]pyrazin-6-yl)benzamide] showed an IC50 of 0.05 to 0.5 µM. COc1cc(Nc2nc(-c3ccc4c(C)c[nH]c4c3)cn3cnnc23)ccc1N1CCOCC1 [I47, N-(3-methoxy-4-morpholinophenyl)-6-(3-methyl-1H-indol-6-yl)-[1,2,4]triazolo[4,3-a]pyrazin-8-amine] was tested, and the IC50 was 0.5 to 5 µM. With COc1cc(Nc2nc(-c3ccc4cn[nH]c4c3)cn3ncnc23)cc(OC)c1OC [I4, 6-(1H-indazol-6-yl)-N-(3,4,5-trimethoxyphenyl)-[1,2,4]triazolo[1,5-a]pyrazin-8-amine] the IC50 was 0.05 to 0.5 µM. NC(=O)c1cccc(-c2cn3ncnc3c(Nc3ccc(N4CCOCC4)cc3)n2)c1 [I6, 3-(8-((4-morpholinophenyl)amino)-[1,2,4]triazolo[1,5-a]pyrazin-6-yl)benzamide] gave an IC50 of 0.05 to 0.5 µM. c1nc2c(Nc3ccc(N4CC5CC4CN5C4COC4)c(OC4CC4)c3)nc(-c3ccc4cc[nH]c4c3)cn2n1 (stereo not drawn) [I80, N-(3-cyclopropoxy-4-(5-(oxetan-3-yl)-2,5-diazabicyclo[2.2.1]heptan-2-yl)phenyl)-6-(1H-indol-6-yl)-[1,2,4]triazolo[1,5-a]pyrazin-8-amine] showed an IC50 of 0.5 to 5 µM. COc1cc(Nc2nc(-c3ccc4c(F)n[nH]c4c3)cn3cnnc23)ccc1N1CCOCC1 [I44, 6-(3-fluoro-1H-indazol-6-yl)-N-(3-methoxy-4-morpholinophenyl)-[1,2,4]triazolo[4,3-a]pyrazin-8-amine] gave an IC50 greater than 5 µM. COc1cc(Nc2nc(-c3ccc4cn[nH]c4c3)cn3ncnc23)ccc1N1CCN(C2CC2)CC1 [I19, N-(4-(4-cyclopropylpiperazin-1-yl)-3-methoxyphenyl)-6-(1H-indazol-6-yl)-[1,2,4]triazolo[1,5-a]pyrazin-8-amine] was tested, and the IC50 was no more than 0.05 µM. With CC(C)N1C[C@@H]2C[C@@H]1CN2c1ccc(Nc2nc(-c3ccc4cn[nH]c4c3)cn3ncnc23)cc1 [I71, 6-(1H-indazol-6-yl)-N-(4-((1S,4R)-5-isopropyl-2,5-diazabicyclo[2.2.1]heptan-2-yl)phenyl)-[1,2,4]triazolo[1,5-a]pyrazin-8-amine] the IC50 was 0.05 to 0.5 µM. With COc1cc(Nc2nc(-c3ccc4cn[nH]c4c3)cn3ncnc23)ccc1N1CCN(CC(F)(F)F)CC1 [I8, 6-(1H-indazol-6-yl)-N-(3-methoxy-4-(4-(2,2,2-trifluoroethyl)piperazin-1-yl)phenyl)-[1,2,4]triazolo[1,5-a]pyrazin-8-amine] the IC50 was no more than 0.05 µM. COc1ccc(Nc2nc(-c3cnc4c(c3)OCC(=O)N4)cn3ncnc23)cc1OC [I36, 7-(8-((3,4-dimethoxyphenyl)amino)-[1,2,4]triazolo[1,5-a]pyrazin-6-yl)-2H-pyrido[3,2-b][1,4]oxazin-3(4H)-one] showed an IC50 of 0.05 to 0.5 µM. In the case of Fc1cc(Nc2nc(-c3ccc4cn[nH]c4c3)cn3cnnc23)ccc1N1CCOCC1 [I40, N-(3-fluoro-4-morpholinophenyl)-6-(1H-indazol-6-yl)-[1,2,4]triazolo[4,3-a]pyrazin-8-amine], the IC50 is reported as greater than 5 µM. COc1cc(Nc2nc(-c3cnc4c(c3)OCC(=O)N4)cn3ncnc23)cc(OC)c1OC [I34, 7-(8-((3,4,5-trimethoxyphenyl)amino)-[1,2,4]triazolo[1,5-a]pyrazin-6-yl)-2H-pyrido[3,2-b][1,4]oxazin-3(4H)-one] was tested, and the IC50 was greater than 5 µM. With c1nc2c(Nc3ccc(N4CCC5(COC5)C4)cc3)nc(-c3ccc4cn[nH]c4c3)cn2n1 [I63, N-(4-(2-oxa-6-azaspiro[3.4]octan-6-yl)phenyl)-6-(1H-indazol-6-yl)-[1,2,4]triazolo[1,5-a]pyrazin-8-amine] the IC50 was greater than 5 µM. c1nc2c(Nc3ccc(N4CCC5(COC5)C4)cc3)nc(-c3ccc4cc[nH]c4c3)cn2n1 [I64, N-(4-(2-oxa-6-azaspiro[3.4]octan-6-yl)phenyl)-6-(1H-indol-6-yl)-[1,2,4]triazolo[1,5-a]pyrazin-8-amine] was tested, and the IC50 was greater than 5 µM. In the case of COc1cc(Nc2nc(-c3cnc4c(c3)OC(C)(C)C(=O)N4)cn3ncnc23)ccc1N1CCOCC1 [I32, 7-(8-((3-methoxy-4-morpholinophenyl)amino)-[1,2,4]triazolo[1,5-a]pyrazin-6-yl)-2,2-dimethyl-2H-pyrido[3,2-b][1,4]oxazin-3(4H)-one], the IC50 is reported as 0.05 to 0.5 µM. Work on CC1(C)Oc2cc(-c3cn4ncnc4c(Nc4ccc(N5CCOCC5)cc4)n3)cnc2NC1=O [I33, 2,2-dimethyl-7-(8-((4-morpholinophenyl)amino)-[1,2,4]triazolo[1,5-a]pyrazin-6-yl)-2H-pyrido[3,2-b][1,4]oxazin-3(4H)-one] yielded an IC50 of 0.05 to 0.5 µM. For Clc1cc(Nc2nc(-c3ccc4cn[nH]c4c3)cn3cnnc23)ccc1N1CCOCC1 [I41, N-(3-chloro-4-morpholinophenyl)-6-(1H-indazol-6-yl)-[1,2,4]triazolo[4,3-a]pyrazin-8-amine], the IC50 was greater than 5 µM. With FC(F)(F)Oc1cc(Nc2nc(-c3ccc4cn[nH]c4c3)cn3ncnc23)ccc1N1CCOCC1 [I20, 6-(1H-indazol-6-yl)-N-(4-morpholino-3-(trifluoromethoxy)phenyl)-[1,2,4]triazolo[1,5-a]pyrazin-8-amine] the IC50 was 0.05 to 0.5 µM. Work on c1nc2c(Nc3ccc(N4CCOCC4)c(OC4CC4)c3)nc(-c3ccc4cn[nH]c4c3)cn2n1 [I74, N-(3-cyclopropoxy-4-morpholinophenyl)-6-(1H-indazol-6-yl)-[1,2,4]triazolo[1,5-a]pyrazin-8-amine] yielded an IC50 of 0.05 to 0.5 µM. In the case of COc1cc(Nc2nc(-c3cnc4c(c3)OCC(=O)N4)cn3ncnc23)ccc1N1CCOCC1 [I30, 7-(8-((3-methoxy-4-morpholinophenyl)amino)-[1,2,4]triazolo[1,5-a]pyrazin-6-yl)-2H-pyrido[3,2-b][1,4]oxazin-3(4H)-one], the IC50 is reported as 0.05 to 0.5 µM. c1cc(N2CCOCC2)ccc1Nc1nc(-c2ccc3[nH]ncc3c2)cn2cnnc12 [I65, 6-(1H-indazol-5-yl)-N-(4-morpholinophenyl)-[1,2,4]triazolo[4,3-a]pyrazin-8-amine] was tested, and the IC50 was greater than 5 µM. COc1cc(Nc2nc(-c3cnc4c(c3)OC(C)(C)C(=O)N4)cn3ncnc23)cc(OC)c1OC [I35, 2,2-dimethyl-7-(8-((3,4,5-trimethoxyphenyl)amino)-[1,2,4]triazolo[1,5-a]pyrazin-6-yl)-2H-pyrido[3,2-b][1,4]oxazin-3(4H)-one] showed an IC50 greater than 5 µM. COc1cc(Nc2nc(-c3ccc4[nH]ccc4c3)cn3cnnc23)ccc1N1CCOCC1 [I68, 6-(1H-indol-5-yl)-N-(3-methoxy-4-morpholinophenyl)-[1,2,4]triazolo[4,3-a]pyrazin-8-amine] gave an IC50 greater than 5 µM. CN1CCN(c2ccc(Nc3nc(-c4ccc5cn[nH]c5c4)cn4ncnc34)cc2)CC1 [I11, 6-(1H-indazol-6-yl)-N-(4-(4-methylpiperazin-1-yl)phenyl)-[1,2,4]triazolo[1,5-a]pyrazin-8-amine] gave an IC50 of no more than 0.05 µM. With O=C1COc2cc(-c3cn4ncnc4c(Nc4ccc(N5CCOCC5)cc4)n3)cnc2N1 [I31, 7-(8-((4-morpholinophenyl)amino)-[1,2,4]triazolo[1,5-a]pyrazin-6-yl)-2H-pyrido[3,2-b][1,4]oxazin-3(4H)-one] the IC50 was 0.05 to 0.5 µM. Work on COc1ccc(Nc2nc(-c3cnc4c(c3)OC(C)(C)C(=O)N4)cn3ncnc23)cc1OC [I37, 7-(8-((3,4-dimethoxyphenyl)amino)-[1,2,4]triazolo[1,5-a]pyrazin-6-yl)-2,2-dimethyl-2H-pyrido[3,2-b][1,4]oxazin-3(4H)-one] yielded an IC50 of 0.05 to 0.5 µM. With CCS(=O)(=O)N1CCN(c2ccc(Nc3nc(-c4ccc5cn[nH]c5c4)cn4ncnc34)cc2)CC1 [I14, N-(4-(4-(ethylsulfonyl)piperazin-1-yl)phenyl)-6-(1H-indazol-6-yl)-[1,2,4]triazolo[1,5-a]pyrazin-8-amine] the IC50 was no more than 0.05 µM. In the case of CC1(C)Oc2cc(-c3cn4ncnc4c(Nc4ccc(N5CCOCC5)cc4)n3)ccc2NC1=O [I27, 2,2-dimethyl-7-(8-((4-morpholinophenyl)amino)-[1,2,4]triazolo[1,5-a]pyrazin-6-yl)-2H-benzo[b][1,4]oxazin-3(4H)-one], the IC50 is reported as 0.05 to 0.5 µM. c1cc2cc(-c3cn4cnnc4c(Nc4ccc(N5CCOCC5)cc4)n3)ccc2[nH]1 [I66, 6-(1H-indol-5-yl)-N-(4-morpholinophenyl)-[1,2,4]triazolo[4,3-a]pyrazin-8-amine] showed an IC50 greater than 5 µM. c1cc(N2CCOCC2)ncc1Nc1nc(-c2ccc3cn[nH]c3c2)cn2cnnc12 [I43, 6-(1H-indazol-6-yl)-N-(6-morpholinopyridin-3-yl)-[1,2,4]triazolo[4,3-a]pyrazin-8-amine] was tested, and the IC50 was greater than 5 µM.

Same assay, conditions: given as number, read-out: Syk inhibition IC50
With c1cc(N2CCOCC2)ccc1Nc1nc(-c2ccc3cn[nH]c3c2)cn2cnnc12 [I48, 6-(1H-indazol-6-yl)-N-(4-morpholinophenyl)-[1,2,4]triazolo[4,3-a]pyrazin-8-amine] the IC50 was greater than 10 µM.
